Earlier results in patent publication US9642819B2, “Low dosage serotonin 5-HT2A receptor agonist to suppress inflammation” (BOARD OF SUPERVISORS OF LOUISIANA STATE UNIVERSITY AND …, priority 2008, dated 2017).
pEC50: −log10 of the molar value.

Target: 5-HT2A receptor (Rattus norvegicus, UniProt P14842)
Conditions: read-out: EC50 phosphoinositide turnover; standard pharmacological assay of 5-HT2A receptor activity; cited from earlier work

5-HT2A receptor, sequence (P14842 whole entry): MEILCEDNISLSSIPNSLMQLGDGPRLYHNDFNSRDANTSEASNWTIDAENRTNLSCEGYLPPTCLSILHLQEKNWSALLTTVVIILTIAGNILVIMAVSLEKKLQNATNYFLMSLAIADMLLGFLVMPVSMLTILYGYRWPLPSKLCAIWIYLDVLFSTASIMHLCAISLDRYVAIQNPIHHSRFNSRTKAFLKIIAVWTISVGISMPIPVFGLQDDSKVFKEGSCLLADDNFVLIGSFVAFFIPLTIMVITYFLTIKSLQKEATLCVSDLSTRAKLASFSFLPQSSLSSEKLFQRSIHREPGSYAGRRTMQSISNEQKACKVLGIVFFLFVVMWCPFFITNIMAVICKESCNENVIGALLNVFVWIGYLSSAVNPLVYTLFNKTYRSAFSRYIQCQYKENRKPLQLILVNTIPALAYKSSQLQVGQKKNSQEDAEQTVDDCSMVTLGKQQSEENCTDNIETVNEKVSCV

For `COc1cc(C[C@@H](C)N)c(OC)cc1I` [(R)-DOI, (R)-1-(2,5-dimethoxy-4-iodophenyl)-2-aminopropane], the pEC50 is listed as 7.70 to 8.00.
